The values below come from paper PMC11945486, “TAS1R2/TAS1R3 Single-Nucleotide Polymorphisms Affect Sweet Taste Receptor Activation by Sweeteners: The SWEET Project” (Nutrients, 2025).

This assay addresses T1, human TAS1R2-C9S (subunit alone) (Homo sapiens, UniProt Q8TE23).
T1 construct: expressed in transfected cells; host or cells: HEK293T-Gα16gust44
T1 sequence (Q8TE23 20-839): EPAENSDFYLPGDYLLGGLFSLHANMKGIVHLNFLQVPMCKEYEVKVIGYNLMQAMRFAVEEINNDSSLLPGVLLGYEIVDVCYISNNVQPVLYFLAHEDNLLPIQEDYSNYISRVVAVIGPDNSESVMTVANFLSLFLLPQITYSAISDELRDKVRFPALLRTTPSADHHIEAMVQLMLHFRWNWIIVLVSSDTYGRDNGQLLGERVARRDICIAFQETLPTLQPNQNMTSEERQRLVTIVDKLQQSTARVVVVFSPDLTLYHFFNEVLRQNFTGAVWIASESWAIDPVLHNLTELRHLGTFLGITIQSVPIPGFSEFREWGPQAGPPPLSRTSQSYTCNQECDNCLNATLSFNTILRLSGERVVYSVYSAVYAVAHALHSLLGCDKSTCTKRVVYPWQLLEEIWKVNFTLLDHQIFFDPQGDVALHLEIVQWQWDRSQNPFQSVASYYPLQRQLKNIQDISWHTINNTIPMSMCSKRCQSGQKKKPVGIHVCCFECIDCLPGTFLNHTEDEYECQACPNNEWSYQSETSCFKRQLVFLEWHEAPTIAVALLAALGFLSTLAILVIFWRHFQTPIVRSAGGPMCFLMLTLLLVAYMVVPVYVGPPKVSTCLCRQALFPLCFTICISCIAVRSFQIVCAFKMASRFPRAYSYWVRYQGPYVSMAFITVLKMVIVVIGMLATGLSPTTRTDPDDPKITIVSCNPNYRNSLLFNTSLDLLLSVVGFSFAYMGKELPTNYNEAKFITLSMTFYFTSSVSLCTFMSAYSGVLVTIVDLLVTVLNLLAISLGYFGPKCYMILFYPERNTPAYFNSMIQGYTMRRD
The experiment in a line: Calcium mobilisation assay, TAS1R2-C9S subunit alone. In kind it is cell-based. From the text: The coding sequences for TAS1R2 and TAS1R3 were commercially synthesised, and the human codon was optimised for expression in human cells. The coding sequences of human TAS1R2 and TAS1R3 were subcloned and inserted into the mammalian expression vectors pcDNA6/myc-HisA and pcDNA4/myc-HisA (Invitrogen; Thermo Fisher Scientific; Illkirch, France) between the EcoRI and NotI restriction sites, generating the plasmids pcDNA6-TAS1R2 and pcDNA4-TAS1R3, respectively. To increase protein expression in mammalian cells, an upstream start codon was used, which was a sequence called MAX, corresponding to the QBI SP163 element also described in pcDNA4-HisMax (Invitrogen; Thermo Fisher Scientific; Illkirch, France). To measure the expression level of the receptor by immunohistochemistry, we used the FLAG sequence ([…]) in the C-terminal position, which encodes the FLAG tag epitope. […]
The HEK293T cells were kindly provided by Jay P. Slack (Givaudan Flavors Corporation; Cincinnati, OH, USA). […] The fluorescence intensity was measured for 90 s (excitation 488 nm, emission 510 nm) in an automated fluorometric FlexStation®3 Multi-Mode microplate reader (Molecular Devices; San Jose, CA, USA). […] The Ca^2+ changes were expressed as fractional changes in fluorescent light intensity: ΔF/F = (F − F0)/F0, where F was the fluorescent light intensity at each point, and F0 was the value of emitted fluorescent light prior to stimulus application. To calculate dose–response relationships, the changes in fluorescence upon stimulus application were averaged, mock-subtracted and baseline-corrected. […] The half-maximal effective concentrations (EC50 values) and maximal signal amplitudes were calculated using SigmaPlot software (version 15.0) (Systat Software; San Jose, CA, USA).
For in vitro calcium mobilisation assay performed on hTAS1R2-SNPs, hTAS1R3-SNPs and mTAS1R3-I60T, 6 to 7 concentrations were tested for each sweet compound, plus buffer alone. All concentration–receptor combinations were measured in duplicate, and each experiment was repeated at least 4 times (8 wells/concentration). […]

Regarding `C=C(C)[C@@H]1CC=C(/C=N/O)CC1` [Perillartine, perillartine], the EC50 came to 190 ± 26.6 µM and the “R1 = Variant EC50/WT EC50” value is 2.1. Further, where the note is “maximal signal amplitude”, the “Max ΔF/F0” value is 0.44 ± 0.02.
